Laboratory results as given in patent US20090042905A1, “TRIAZOLE DERIVATIVES AS LIGANDS OF G-PROTEIN COUPLED RECEPTORS” (AETERNA ZENTARIS GmbH, priority 2007, published 2009).
Read-outs that look alike come from different tables or passages of the source.

Tested on: male C57BL/6J mice
Experiment: Fasting-induced feeding behavior (food intake) of mice
Format: in vivo
Conditions: oral dose 2 μmol per mouse, 30 min before food
Protocol: The effectiveness of selected compounds of the invention on fasting-induced feeding behavior of mice was investigated.
The experiments were performed according to Asakawa A et al. (Asakawa A et al., Gut 2003, 52: 947-952) with the following technical details:
Preparation of compounds of the invention: dissolved in dimethylsulfoxide (DMSO) and then diluted in distilled water (i.e. 0.5, 1 and 10% DMSO for 0.5, 1 and 2 μmol/mouse, respectively);
Preparation of reference substance (positive control) sibutramine: dissolved in distilled water;
Control substance (negative vehicle control): 10% DMSO in distilled water (compounds of the invention); distilled water (sibutramine);
Route of administration: p.o.;
Pretreatment time: 30 min before presenting the food to the animals;
Volume of administration: 0.5 ml/mouse;
Animals: male C57BL/6J mice;
Body weight range: 18.3-21.4 g

[1] = 20 min, read-out: change of food intake - compounds versus vehicle treated negative control, at 20 min
[2] = 1 h, read-out: change of food intake - compounds versus vehicle treated negative control, at 1 h
[3] = 2 h, read-out: change of food intake - compounds versus vehicle treated negative control, at 2 h
[4] = 4 h, read-out: change of food intake - compounds versus vehicle treated negative control, at 4 h

With `CC(C)(N)C(=O)N[C@H](Cc1c[nH]c2ccccc12)c1nnc(CCc2ccccc2)n1Cc1ccc(Cl)c(Cl)c1` [Compound 122, (R)-N-(1-(4-(3,4-dichlorobenzyl)-5-phenethyl-4H-1,2,4-triazol-3-yl)-2-(1H-indol-3-yl)ethyl)-2-amino-2-methylpropanamide] the change in vivo at 2 µmol/mouse [1] was -52%, the change in vivo at 2 µmol/mouse [2] was -42% and the change in vivo at 2 µmol/mouse [3] was -28%. The change in vivo at 2 µmol/mouse [4] was -16%.
`CC(C)(N)C(=O)N[C@H](Cc1c[nH]c2ccccc12)c1nnc(CCc2ccccc2)n1Cc1cccc2ccccc12` [Compound 27, (R)-N-(2-(1H-indol-3-yl)-1-(4-(naphthalen-1-ylmethyl)-5-phenethyl-4H-1,2,4-triazol-3-yl)ethyl)-2-amino-2-methylpropanamide] showed a change in vivo at 2 µmol/mouse [1] of -57%, a change in vivo at 2 µmol/mouse [2] of -58% and a change in vivo at 2 µmol/mouse [3] of -48%. For the same compound, the change in vivo at 2 µmol/mouse [4] was -38%.
Compound `Cc1ccc(Cn2c(CCc3ccccc3)nnc2[C@@H](Cc2c[nH]c3ccccc23)NC(=O)C(C)(C)N)cc1` [Compound 37, (R)-N-(1-(4-(4-methylbenzyl)-5-phenethyl-4H-1,2,4-triazol-3-yl)-2-(1H-indol-3-yl)ethyl)-2-amino-2-methylpropanamide] has a change in vivo at 2 µmol/mouse [1] of -37%, a change in vivo at 2 µmol/mouse [2] of -49% and a change in vivo at 2 µmol/mouse [3] of -51%. For the same compound, the change in vivo at 2 µmol/mouse [4] was -34%.
With `COc1ccc(Cn2c(CCc3c[nH]c4ccccc34)nnc2[C@@H](Cc2c[nH]c3ccccc23)NC(=O)C2CCNCC2)c(OC)c1` [Compound 31, (R)-N-(1-(5-(2-(1H-indol-3-yl)ethyl)-4-(2,4-dimethoxybenzyl)-4H-1,2,4-triazol-3-yl)-2-(1H-indol-3-yl)ethyl)piperidine-4-carboxamide] the change in vivo at 2 µmol/mouse [1] was 50%, the change in vivo at 2 µmol/mouse [2] was 20% and the change in vivo at 2 µmol/mouse [3] was 16%. For the same compound, the change in vivo at 2 µmol/mouse [4] was 9%.
In the case of `CC(C)(N)C(=O)N[C@H](Cc1c[nH]c2ccccc12)c1nnc(CCc2ccccc2)n1CCc1ccccc1` [Compound 117, (R)-N-(1-(4,5-diphenethyl-4H-1,2,4-triazol-3-yl)-2-(1H-indol-3-yl)ethyl)-2-amino-2-methylpropanamide], the change in vivo at 2 µmol/mouse [1] is reported as -31%, the change in vivo at 2 µmol/mouse [2] is reported as -24% and the change in vivo at 2 µmol/mouse [3] is reported as -11%. The change in vivo at 2 µmol/mouse [4] was -6%.
For `CC(C)(N)C(=O)N[C@H](Cc1c[nH]c2ccccc12)c1nnc(CCCc2c[nH]c3ccccc23)n1Cc1cccc2ccccc12` [Compound 11, (R)-N-(1-(5-(3-(1H-indol-3-yl)propyl)-4-(naphthalen-1-ylmethyl)-4H-1,2,4-triazol-3-yl)-2-(1H-indol-3-yl)ethyl)-2-amino-2-methylpropanamide], the change in vivo at 2 µmol/mouse [1] was -56%, the change in vivo at 2 µmol/mouse [2] was -65% and the change in vivo at 2 µmol/mouse [3] was -55%. For the same compound, the change in vivo at 2 µmol/mouse [4] was -55%.
`COc1ccc(Cn2c(CCc3ccccc3)nnc2[C@@H](Cc2c[nH]c3ccccc23)NC(=O)C2CCNCC2)c(OC)c1` [Compound 62, (R)-N-(1-(4-(2,4-dimethoxybenzyl)-5-phenethyl-4H-1,2,4-triazol-3-yl)-2-(1H-indol-3-yl)ethyl)piperidine-4-carboxamide] was tested, and the change in vivo at 2 µmol/mouse [1] was 56%, the change in vivo at 2 µmol/mouse [2] was 68% and the change in vivo at 2 µmol/mouse [3] was 50%. It also gave a change in vivo at 2 µmol/mouse [4] of 26%.
`CC(C)(N)C(=O)N[C@H](Cc1c[nH]c2ccccc12)c1nnc(Cc2ccccc2)n1Cc1ccc(Cl)c(Cl)c1` [Compound 118, (R)-N-(1-(4-(3,4-dichlorobenzyl)-5-benzyl-4H-1,2,4-triazol-3-yl)-2-(1H-indol-3-yl)ethyl)-2-amino-2-methylpropanamide] showed a change in vivo at 2 µmol/mouse [1] of -31%, a change in vivo at 2 µmol/mouse [2] of -30% and a change in vivo at 2 µmol/mouse [3] of -25%. It also gave a change in vivo at 2 µmol/mouse [4] of -24%.
Work on `CC(C)(N)C(=O)N[C@H](Cc1c[nH]c2ccccc12)c1nnc(CCc2c[nH]c3ccccc23)n1Cc1cccc2ccccc12` [Compound 5, (R)-N-(1-(5-(2-(1H-indol-3-yl)ethyl)-4-(naphthalen-1-ylmethyl)-4H-1,2,4-triazol-3-yl)-2-(1H-indol-3-yl)ethyl)-2-amino-2-methylpropanamide] yielded a change in vivo at 2 µmol/mouse [1] of -56%, a change in vivo at 2 µmol/mouse [2] of -58% and a change in vivo at 2 µmol/mouse [3] of -53%. It also gave a change in vivo at 2 µmol/mouse [4] of -51%.
For `O=C(N[C@H](Cc1c[nH]c2ccccc12)c1nnc(CCc2ccccc2)n1-c1ccccc1)C1CCNCC1` [Compound 142, N-((R)-2-(1H-indol-3-yl)-1-(5-phenethyl-4-phenyl-4H-1,2,4-triazol-3-yl)ethyl)piperidine-4-carboxamide], the change in vivo at 2 µmol/mouse [1] was -56%, the change in vivo at 2 µmol/mouse [2] was -57% and the change in vivo at 2 µmol/mouse [3] was -55%. For the same compound, the change in vivo at 2 µmol/mouse [4] was -49%.
Work on `CC(C)(N)C(=O)N[C@H](Cc1c[nH]c2ccccc12)c1nnc(CCc2c[nH]c3ccccc23)n1Cc1ccc(Cl)c(Cl)c1` [Compound 28, (R)-N-(1-(5-(2-(1H-indol-3-yl)ethyl)-4-(3,4-dichlorobenzyl)-4H-1,2,4-triazol-3-yl)-2-(1H-indol-3-yl)ethyl)-2-amino-2-methylpropanamide] yielded a change in vivo at 2 µmol/mouse [1] of -17%, a change in vivo at 2 µmol/mouse [2] of -28% and a change in vivo at 2 µmol/mouse [3] of -21%. The change in vivo at 2 µmol/mouse [4] was -18%.
`COc1ccc(Cn2c(CCc3c[nH]c4ccccc34)nnc2[C@@H](Cc2c[nH]c3ccccc23)NC(=O)C2CCNCC2)cc1` [Compound 45, (R)-N-(1-(5-(2-(1H-indol-3-yl)ethyl)-4-(4-methoxybenzyl)-4H-1,2,4-triazol-3-yl)-2-(1H-indol-3-yl)ethyl)piperidine-4-carboxamide] gave a change in vivo at 2 µmol/mouse [1] of -36%, a change in vivo at 2 µmol/mouse [2] of -28% and a change in vivo at 2 µmol/mouse [3] of -33%. It also gave a change in vivo at 2 µmol/mouse [4] of -34%.
For `COc1ccc(Cn2c(CCc3ccccc3)nnc2[C@@H](Cc2c[nH]c3ccccc23)NC(=O)c2cnccn2)c(OC)c1` [Compound 66, (R)-N-(1-(4-(2,4-dimethoxybenzyl)-5-phenethyl-4H-1,2,4-triazol-3-yl)-2-(1H-indol-3-yl)ethyl)pyrazine-2-carboxamide], the change in vivo at 2 µmol/mouse [1] was -56%, the change in vivo at 2 µmol/mouse [2] was -40% and the change in vivo at 2 µmol/mouse [3] was -45%. It also gave a change in vivo at 2 µmol/mouse [4] of -51%.
For `COc1ccc(Cn2c(CCc3ccccc3)nnc2[C@@H](Cc2c[nH]c3ccccc23)NC(=O)[C@H]2CCCCN2)cc1` [Compound 49, (R)-N-((R)-1-(4-(4-methoxybenzyl)-5-phenethyl-4H-1,2,4-triazol-3-yl)-2-(1H-indol-3-yl)ethyl)piperidine-2-carboxamide], the change in vivo at 2 µmol/mouse [1] was -59%, the change in vivo at 2 µmol/mouse [2] was -48% and the change in vivo at 2 µmol/mouse [3] was -39%. It also gave a change in vivo at 2 µmol/mouse [4] of -23%.
Work on `COc1ccc(Cn2c(CCc3c[nH]c4ccccc34)nnc2[C@@H](Cc2c[nH]c3ccccc23)NC(=O)[C@@H]2C=CCN2)cc1` [Compound 190, (2S)-N-((R)-1-(5-(2-(1H-indol-3-yl)ethyl)-4-(4-methoxybenzyl)-4H-1,2,4-triazol-3-yl)-2-(1H-indol-3-yl)ethyl)-2,5-dihydro-1H-pyrrole-2-carboxamide] yielded a change in vivo at 2 µmol/mouse [1] of -39%, a change in vivo at 2 µmol/mouse [2] of -30% and a change in vivo at 2 µmol/mouse [3] of -33%. The change in vivo at 2 µmol/mouse [4] was -30%.
`COc1ccc(Cn2c(CCc3ccccc3)nnc2[C@@H](Cc2c[nH]c3ccccc23)NC(=O)C(C)(C)N)c(OC)c1` [Compound 179, N-((R)-1-(4-(2,4-dimethoxybenzyl)-5-phenethyl-4H-1,2,4-triazol-3-yl)-2-(1H-indol-3-yl)ethyl)-2-amino-2-methylpropanamide] gave a change in vivo at 2 µmol/mouse [1] of -25%, a change in vivo at 2 µmol/mouse [2] of -39% and a change in vivo at 2 µmol/mouse [3] of -40%. The change in vivo at 2 µmol/mouse [4] was -38%.
Work on `COc1ccc(Cn2c(CCc3ccccc3)nnc2[C@@H](Cc2c[nH]c3ccccc23)NC(=O)[C@@H]2CCCCN2)cc1` [Compound 48, (S)-N-((R)-1-(4-(4-methoxybenzyl)-5-phenethyl-4H-1,2,4-triazol-3-yl)-2-(1H-indol-3-yl)ethyl)piperidine-2-carboxamide] yielded a change in vivo at 2 µmol/mouse [1] of -22%, a change in vivo at 2 µmol/mouse [2] of -30% and a change in vivo at 2 µmol/mouse [3] of -27%. The change in vivo at 2 µmol/mouse [4] was -21%.
